PubChem BioAssay (NCI)
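1) Cells in 96-well plates. 2) Compound, 48 h, 5 concentrations. 3) Linear interpolation between surrounding doses. 4) Unreached endpoint = highest concentration. TGI marks complete inhibition of growth.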 Where a SMILES comes first, the peptide text is derived from it. [ ]: non-standard residue; d: D form. The star is where a group is joined. X28 = COC1=CC(=O)N(C(=O)[C@@H](O*)C(C)C)[C@H]1Cc1ccccc1; NMeV = CN[C@H](C(=O)O)C(C)C; Hexanoyl = CCCCCC(=O)*

How the values were obtained:
Assay in all cases: NCI anticancer screen, dose series, 48 h
[1] = test system: 786-0 renal
[2] = test system: A498 renal
[3] = test system: ACHN renal
[4] = test system: CCRF-CEM leukemia
[5] = test system: HCC-2998 colon
[6] = test system: HS 578T breast
[7] = test system: K-562 leukemia
[8] = test system: LOX IMVI melanoma
[9] = test system: PC-3 prostate
[10] = test system: SF-268 CNS
[11] = test system: SF-295 CNS
[12] = test system: SK-MEL-2 melanoma
[13] = test system: SR leukemia
[14] = test system: SW-620 colon
[15] = test system: T-47D breast
[16] = test system: TK-10 renal
[17] = test system: UACC-257 melanoma
[18] = test system: UO-31 renal
[19] = test system: SF-539 CNS
[20] = test system: HL-60(TB) leukemia

Row | SMILES | TGI [1] [µM] | TGI [2] [µM] | TGI [3] [µM] | TGI [4] [µM] | TGI [5] [µM] | TGI [6] [µM] | TGI [7] [µM] | TGI [8] [µM] | TGI [9] [µM] | TGI [10] [µM] | TGI [11] [µM] | TGI [12] [µM] | TGI [13] [µM] | TGI [14] [µM] | TGI [15] [µM] | TGI [16] [µM] | TGI [17] [µM] | TGI [18] [µM] | TGI [19] [µM] | TGI [20] [µM]
1 | O=C(/C=C/c1csc(-c2ccccc2)n1)NCc1ccc(C(=O)NCCc2ccccc2)cc1 | 32.7 | 64.8 | > 100 | > 100 | > 100 | > 100 | > 100 | > 100 | > 100 | > 100 | 30.9 | > 100 | > 100 | > 100 | > 100 | 38.2 | > 100 | > 100 | – | –
2 | CCOC(=O)C1=[N+]([O-])OC2=C(O)CCCC21 (configuration not stated) | > 100 | > 100 | > 100 | > 100 | > 100 | > 100 | > 100 | > 100 | > 100 | > 100 | > 100 | > 100 | > 100 | > 100 | > 100 | > 100 | > 100 | > 100 | – | –
3 | COC12OC3(C4OC41)C(C(=O)O[C@H]3CO[Si](C)(C)C(C)(C)C)C2C(=O)Oc1ccccc1 (some centres not stated) | > 100 | > 100 | > 100 | > 100 | > 100 | > 100 | > 100 | > 100 | > 100 | > 100 | > 100 | > 100 | > 100 | > 100 | > 100 | > 100 | > 100 | > 100 | – | –
4 | CCCCCCCCCCCC(=O)Oc1c(Cl)cc(Cl)c(OC(=O)C(=O)Oc2c(Cl)cc(Cl)c(OC(=O)CCCCCCCCCCC)c2Cl)c1Cl | > 100 | – | > 100 | > 100 | – | > 100 | – | > 100 | > 100 | > 100 | > 100 | – | > 100 | > 100 | > 100 | > 100 | > 100 | > 100 | – | –
5 | O=C(Cc1ccccc1)NNc1nc(NNC(=O)c2ccncc2)nc(Nc2ccc([N+](=O)[O-])cc2)n1 | > 10 | > 10 | > 10 | > 10 | > 10 | > 10 | > 10 | > 10 | > 10 | > 10 | > 10 | – | > 10 | > 10 | > 10 | > 10 | > 10 | > 10 | > 10 | –
6 | N=c1oc2cc(O)ccc2cc1C(=O)NCc1ccccc1 | > 100 | – | > 100 | 45 | – | 45.4 | 28.2 | > 100 | > 100 | 76.3 | > 100 | 34.2 | 67 | 81.6 | 33.7 | > 100 | > 100 | > 100 | 63.3 | –
7 | O=C1C(Cl)=C(OCCCCl)C(=O)c2c(O)ccc(O)c21 | 4.81 | 28.5 | 16.3 | 0.168 | 30.2 | 22.8 | 1.7 | 3.35 | 12.7 | 8.61 | 18.3 | – | 1.2 | 4.29 | 6.43 | 9.48 | 5.98 | 12.1 | 8.97 | –
8 | CCCCCC(=O)N[C@H](C(=O)N[C@H](C(=O)N(C)[C@H](C(=O)N1CCC[C@H]1C(=O)N1CCC[C@H]1C(=O)O[C@H](C(=O)N1C(=O)C=C(OC)[C@@H]1Cc1ccccc1)C(C)C)C(C)C)C(C)C)C(C)C (Hexanoyl-VV[NMeV]PP-X28) | > 100 | > 100 | > 100 | > 100 | > 100 | > 100 | > 100 | > 100 | 85.5 | > 100 | > 100 | > 100 | – | > 100 | > 100 | > 100 | > 100 | > 100 | > 100 | > 100
9 | COc1ccc(OCc2nc3cc(C(F)(F)F)ccc3nc2-c2ccccc2)cc1 | > 100 | > 100 | > 100 | > 100 | > 100 | > 100 | > 100 | > 100 | > 100 | > 100 | > 100 | > 100 | – | > 100 | > 100 | > 100 | > 100 | > 100 | > 100 | > 100
10 | Cc1nc2cccc(F)c2c(=O)n1C1CCCCNC1=O (configuration not stated) | > 10 | – | > 10 | > 10 | > 10 | > 10 | > 10 | > 10 | > 10 | > 10 | > 10 | > 10 | > 10 | > 10 | > 10 | > 10 | > 10 | > 10 | > 10 | > 10
11 | CC(NNC(=O)c1ccncc1)c1ccc(F)cc1 (configuration not stated) | > 100 | > 100 | > 100 | > 100 | > 100 | > 100 | > 100 | > 100 | > 100 | > 100 | > 100 | > 100 | – | > 100 | > 100 | > 100 | > 100 | > 100 | > 100 | > 100
12 | Cc1ccc(C2=Nc3cccc4cccc(c34)N2)cc1 | > 100 | – | > 100 | > 100 | > 100 | > 100 | > 100 | > 100 | > 100 | > 100 | > 100 | > 100 | > 100 | > 100 | > 100 | > 100 | > 100 | > 100 | > 100 | > 100
13 | CC(=O)N1C(Nc2ccccn2)CCN1c1ccccc1 (configuration not stated) | > 10 | – | > 10 | > 10 | > 10 | > 10 | > 10 | > 10 | > 10 | > 10 | > 10 | > 10 | > 10 | > 10 | > 10 | > 10 | > 10 | > 10 | > 10 | > 10
14 | COC(=O)c1ccccc1CC1Cc2ccc3c(c2C1=O)CCC3 (configuration not stated) | > 100 | – | > 100 | > 100 | > 100 | > 100 | > 100 | > 100 | > 100 | > 100 | > 100 | > 100 | > 100 | > 100 | > 100 | > 100 | > 100 | > 100 | > 100 | 84.8
15 | O=[N+]([O-])C(C(Cl)=C(Cl)Cl)=C(N(Cc1ccccc1)Cc1ccccc1)N(Cc1ccccc1)Cc1ccccc1 | > 100 | 86.6 | > 100 | 60.6 | 55.4 | > 100 | > 100 | > 100 | > 100 | > 100 | > 100 | 98.3 | – | > 100 | > 100 | > 100 | > 100 | > 100 | 76.6 | 78
16 | CCNCCNc1c2ccccc2nc2ccccc12 | 13.4 | – | 1.37 | 8.63 | 1.09 | 5.28 | 5.66 | 2.95 | 3.95 | 5.52 | 3.3 | 3.63 | 4.18 | 2.84 | 8.41 | 23.3 | 3.46 | 5.02 | 2.21 | > 100
17 | CCOC(=O)N/N=C(/OCC)c1ccccc1 | > 100 | > 100 | > 100 | > 100 | > 100 | > 100 | > 100 | > 100 | – | > 100 | > 100 | > 100 | > 100 | > 100 | > 100 | > 100 | > 100 | > 100 | > 100 | > 100
18 | CC(=O)N1C(c2[nH]c3ccccc3c2-c2ccccc2)CCN1c1ccccc1 (configuration not stated) | > 10 | – | > 10 | > 10 | > 10 | > 10 | > 10 | > 10 | > 10 | > 10 | > 10 | > 10 | > 10 | > 10 | > 10 | > 10 | > 10 | > 10 | > 10 | > 10
19 | C[n+]1c2ccccc2c(C(=O)Nc2ccc(S(=O)(=O)Nc3ccnn3-c3ccccc3)cc2)c2ccccc21 | > 100 | – | > 100 | – | > 100 | > 100 | > 100 | > 100 | > 100 | > 100 | > 100 | > 100 | > 100 | > 100 | > 100 | > 100 | > 100 | > 100 | > 100 | –
